Experimental findings from patent US9034794B2, “Method for post-emergence crabgrass control” (FMC Corporation, priority 2007, dated 2015) are described below.

The test system of the assay is Crabgrass (Digitaria sp.). Briefly: Post-emergence control of crabgrass in greenhouse pots, application at the 1-2 leaf growth stage. Type of assay: in vivo. The method, then: The compositions of the present invention were tested for herbicidal efficacy in the following manner:
For post-emergence testing, three disposable 3 inch square pots for each rate of application of each herbicide solution were filled with a soil, comprised of peat moss, vermiculite, bark ash, pine bark, limestone and a wetting agent (Metro Mix® 360 artificial soil, Scotts Company, Marysville, Ohio), to which about 20 to 30 crabgrass seeds (Digitaria sp.) seeds were planted. The pots were placed in a greenhouse and watered daily, thus allowing the seeds to germinate and the foliage to develop for 11 days, until the crabgrass was at the 1-2 leaf growth stage.
Pots designated for treatment were placed on a conveyor belt and the conveyor belt fed under a spray nozzle mounted about ten inches above the postemergent foliage. The spray of herbicidal solution was commenced and once stabilized; the pots were passed under the spray at a speed to receive a coverage equivalent of 30 gallons per acre. The application rates are those shown in Table 1 below for the individual herbicidal solutions and the herbicide compositions of the present invention. The post-emergence pots were immediately placed in the green-house and not watered for 24 hours after treatment. Thereafter they were regularly watered at ground level. The control of crabgrass was evaluated in each experimental test from 1 to 22 days after treatment (DAT). The results, shown as an average of the replications, were compared with results observed in untreated control pots in the same tests. All test treatments contained 0.25% (by volume) of a non-ionic surfactant.
Percent control was determined by comparing the treated plants to the untreated control using the following rating system:
The results, shown as an average of the replications, were compared with results observed in untreated control plots in the same trials.

As to `CCCN(CCC)c1c([N+](=O)[O-])cc(C(F)(F)F)c(N)c1[N+](=O)[O-]` [B, 2,4-dinitro-N^3,N^3-dipropyl-6-(trifluoromethyl)-1,3-benzenediamine], the Average % control came out at 0% (0.75 lb AI/Acre, 1 DAT); 0% (0.75 lb AI/Acre, 3 DAT); 0% (0.75 lb AI/Acre, 7 DAT); 0% (0.75 lb AI/Acre, 14 DAT); 0% (0.75 lb AI/Acre, 22 DAT).
Regarding `Cc1nn(-c2cc(NS(C)(=O)=O)c(Cl)cc2Cl)c(=O)n1C(F)F` [A, N-[2,4-dichloro-5-[4-(difluoromethyl)-4,5-dihydro-3-methyl-5-oxo-1H-1,2,4-triazol-1-yl]phenyl]methanesulfonamide], the Average % control (0.25 lb AI/Acre, 1 DAT) came out at 20%; the Average % control (0.25 lb AI/Acre, 3 DAT) stood at 20%; the Average % control (0.25 lb AI/Acre, 7 DAT) is given as 5%; the Average % control (0.25 lb AI/Acre, 14 DAT) was 0%; the Average % control (0.25 lb AI/Acre, 22 DAT) turned out to be 0%; the Average % control (0.375 lb AI/Acre, 1 DAT) turned out to be 10%. This compound gave an Average % control (0.375 lb AI/Acre, 3 DAT) of 25%; an Average % control (0.375 lb AI/Acre, 7 DAT) of 10%; an Average % control (0.375 lb AI/Acre, 14 DAT) of 0%; an Average % control (0.375 lb AI/Acre, 22 DAT) of 0%.
